According to US10881108B2, “Method of protecting field corn from damage by a plant pathogen” (SUMITOMO CHEMICAL COMPANY, LIMITED, priority 2019, dated 2021):

Legend:
Assay type in all cases: in vivo
Cercospora zeae-maydis [1] = test: Foliar spray on potted corn, then grey leaf spot inoculation; fresh weight of aerial part; conditions: foliar spray 500 g per hectare, 14 days from inoculation
Protocol: Field corn is sown to a pot filled with a soil. It is incubated for 7 days in a greenhouse. Mefentrifluconazole spray liquid (prepared by diluting an aqueous suspension concentrate of mefentrifluconazole with water) is uniformly sprayed onto the foliage of field corn at the amount of 200 L per hectare so that the application rate of mefentrifluconazole may be 500 g per hectare. On the next day of the spraying, a pathogen of grey leaf spot (Cercospora zeae-maydis) is inoculated to the foliage of field corn. The field corn is incubated in a greenhouse for 14 days from the inoculation, and then fresh weight of the aerial part of the field corn is measured. It is confirmed that the fresh weight is equivalent to that of the control where field corn is not treated with mefentrifluconazole and the pathogen is not inoculated (no-treatment-no-inoculation control) and is bigger than that of the control where field corn is not treated with mefentrifluconazole and the pathogen is inoculated (no-treatment-inoculation control). The same procedure of the example 1 is repeated except for replacing field corn with popcorn, sweet corn, or waxy corn. It is confirmed that the fresh weight of popcorn, sweet corn, or waxy corn is smaller than that of the corresponding no-treatment-no-inoculation control and is equivalent to that of the corresponding no-treatment-inoculation control.

Cercospora zeae-maydis [2] = test: Seed coating, then grey leaf spot inoculation; fresh weight of aerial part; conditions: seed coating 0.2 mg per seed, 20 g per hectare, 14 days from inoculation
Protocol: Seeds of field corn are coated with a mefentrifluconazole aqueous suspension concentrate so that the amount of mefentrifluconazole to be applied to each seed may be 0.2 mg. Then, the field corn seeds are sown to a pot filled with a soil at a sowing rate of 100,000 seeds per hectare. That is, the application rate of mefentrifluconazole is 20 g per hectare. Then, the field corn is incubated in a greenhouse for 10 days, followed by inoculating a pathogen of grey leaf spot (Cercospora zeae-maydis) to the foliage of field corn. The field corn is incubated in a greenhouse for 14 days from the inoculation, and then the fresh weight of the aerial part of the field corn is measured. It is confirmed that the fresh weight is equivalent to that of the control where field corn is not treated with mefentrifluconazole and the pathogen is not inoculated (no-treatment-no-inoculation control) and is bigger than that of the control where field corn is not treated with mefentrifluconazole and the pathogen is inoculated (no-treatment-inoculation control). The same procedure of the example 2 is repeated except for replacing field corn with popcorn, sweet corn, or waxy corn. It is confirmed that the fresh weight of popcorn, sweet corn, or waxy corn is smaller than that of the corresponding no-treatment-no-inoculation control and is equivalent to that of the corresponding no-treatment-inoculation control.

Cercospora zeae-maydis [3] = test: Dripping onto primary leaf, then grey leaf spot inoculation; fresh weight of aerial part; conditions: dripped onto primary leaf 0.2 mg per plant, 200 g per hectare, 14 days from inoculation
Protocol: Field corn is sown to a pot filled with a soil at a sowing rate of 1,000,000 seeds per hectare. The field corn is incubated for 10 days in a greenhouse, and then mefentrifluconazole dilution liquid (prepared by diluting an aqueous suspension concentrate of mefentrifluconazole with water) is dripped onto the primary leaf of field corn so that the amount of mefentrifluconazole to be applied to each plant may be 0.2 mg. That is, the application rate of mefentrifluconazole is 200 g per hectare. On the next day of the application, a pathogen of grey leaf spot (Cercospora zeae-maydis) is inoculated to the foliage of field corn. The field corn is incubated in a greenhouse for 14 days from the inoculation, and then fresh weight of the aerial part of the field corn is measured. It is confirmed that the fresh weight is equivalent to that of the control where field corn is not treated with mefentrifluconazole and the pathogen is not inoculated (no-treatment-no-inoculation control) and is bigger than that of the control where field corn is not treated with mefentrifluconazole and the pathogen is inoculated (no-treatment-inoculation control). The same procedure of the example 3 is repeated except for replacing field corn with popcorn, sweet corn, or waxy corn. It is confirmed that the fresh weight of popcorn, sweet corn, or waxy corn is smaller than that of the corresponding no-treatment-no-inoculation control and is equivalent to that of the corresponding no-treatment-inoculation control.

Cercospora zeae-maydis [4] = test: Seed dipping, then grey leaf spot inoculation; plant length of aerial part; conditions: seed dipping 0.2 mg per seed, 200 g per hectare; for Plant length in treatment plot (A) / Treatment/control ratio (100 × A/B): 7 days from inoculation
Protocol: Seeds of three varieties of field corn were separately dipped in a mefentrifluconazole dilution liquid (prepared by diluting an aqueous suspension concentrate of mefentrifluconazole with water) so that the amount of mefentrifluconazole to be applied to each seed might be 0.2 mg. Then, the field corn seeds were sown to a pot filled with a soil at a sowing rate of 1,000,000 seeds per hectare. That is, the application rate of mefentrifluconazole was 200 g per hectare. Each field corn was incubated in a greenhouse for 12 days from the sowing, and then a pathogen of grey leaf spot (Cercospora zeae-maydis) was inoculated to the foliage of each field corn. Each field corn was incubated in a greenhouse for 7 days from the inoculation, and then plant length of the aerial part of each field corn was measured. The plant length is referred to as ‘the plant length in treatment plot’. As a control experiment, the same procedure was repeated except that dipping treatment with mefentrifluconazole dilution liquid and the inoculation of the pathogen were not conducted. The plant length obtained in the control experiment is referred to as ‘the plant length in control plot’. The same procedure of the example 4 was repeated except for replacing three varieties of field corn with a variety of popcorn, and two varieties of waxy corn.

Cercospora zeae-maydis [5] = test: Dripping onto first leaf, then grey leaf spot inoculation; plant length of aerial part; conditions: 100 g per hectare; for Plant length in treatment plot (A) / Treatment/control ratio (100 × A/B): dripped onto first leaf 0.1 mg per plant, 7 days from inoculation; for protection from the damage by the pathogen: dripped onto first leaf
Protocol: Four varieties of field corn were sown to a pot filled with a soil at a sowing rate of 1,000,000 seeds per hectare. Then each field corn was incubated for 7 days in a greenhouse. A mefentrifluconazole dilution liquid (prepared by diluting an aqueous suspension concentrate of mefentrifluconazole with water) is dripped onto the first leaf of field corn plants so that the amount of mefentrifluconazole to be applied to each plant might be 0.1 mg. That is, the application rate of mefentrifluconazole was 100 g per hectare. Five days after the application, a pathogen of grey leaf spot (Cercospora zeae-maydis) was inoculated to the foliage of each field corn. Each field corn was incubated in a greenhouse for 7 days from the inoculation, and then plant length of the aerial part of each field corn was measured. The plant length is referred to as ‘the plant length in treatment plot’. As a control experiment, the same procedure was repeated except that dripping treatment with mefentrifluconazole dilution liquid and the inoculation of the pathogen were not conducted. The plant length obtained in the control experiment is referred to as ‘the plant length in control plot’. The same procedure of the example 5 was repeated except for replacing four varieties of field corn with two varieties of popcorn, a variety of sweet corn, and two varieties of waxy corn.

[6] = popcorn, sweet corn, or waxy corn

Compound: CC(O)(Cn1cncn1)c1ccc(Oc2ccc(Cl)cc2)cc1C(F)(F)F (stereo not drawn) [mefentrifluconazole]
- fresh weight of the aerial part compared with no-treatment-inoculation control (Cercospora zeae-maydis [1]; field corn): bigger
- fresh weight of the aerial part compared with no-treatment-no-inoculation control (Cercospora zeae-maydis [1]; field corn): equivalent
- fresh weight compared with no-treatment-inoculation control (Cercospora zeae-maydis [1]; [6]): equivalent
- fresh weight compared with no-treatment-no-inoculation control (Cercospora zeae-maydis [1]; [6]): smaller
- fresh weight of the aerial part compared with no-treatment-inoculation control (Cercospora zeae-maydis [2]; field corn): bigger
- fresh weight of the aerial part compared with no-treatment-no-inoculation control (Cercospora zeae-maydis [2]; field corn): equivalent
- fresh weight compared with no-treatment-inoculation control (Cercospora zeae-maydis [2]; [6]): equivalent
- fresh weight compared with no-treatment-no-inoculation control (Cercospora zeae-maydis [2]; [6]): smaller
- fresh weight of the aerial part compared with no-treatment-inoculation control (Cercospora zeae-maydis [3]; field corn): bigger
- fresh weight of the aerial part compared with no-treatment-no-inoculation control (Cercospora zeae-maydis [3]; field corn): equivalent
- fresh weight compared with no-treatment-inoculation control (Cercospora zeae-maydis [3]; [6]): equivalent
- fresh weight compared with no-treatment-no-inoculation control (Cercospora zeae-maydis [3]; [6]): smaller
- Plant length in treatment plot (A) (Cercospora zeae-maydis [4]; Field corn/DKC5632): 58 cm
- Treatment/control ratio (100 × A/B) (Cercospora zeae-maydis [4]; Field corn/DKC5632): 95
- Plant length in treatment plot (A) (Cercospora zeae-maydis [4]; Field corn/Koshu): 63 cm
- Treatment/control ratio (100 × A/B) (Cercospora zeae-maydis [4]; Field corn/Koshu): 105
- Plant length in treatment plot (A) (Cercospora zeae-maydis [4]; Field corn/MAS40F): 61 cm
- Treatment/control ratio (100 × A/B) (Cercospora zeae-maydis [4]; Field corn/MAS40F): 97
- Plant length in treatment plot (A) (Cercospora zeae-maydis [4]; Popcorn/Yuki-pop): 45 cm
- Treatment/control ratio (100 × A/B) (Cercospora zeae-maydis [4]; Popcorn/Yuki-pop): 80
- Plant length in treatment plot (A) (Cercospora zeae-maydis [4]; Waxy corn/Ki-mochi): 30 cm
- Treatment/control ratio (100 × A/B) (Cercospora zeae-maydis [4]; Waxy corn/Ki-mochi): 70
- Plant length in treatment plot (A) (Cercospora zeae-maydis [4]; Waxy corn/Shiro-mochi): 51 cm
- Treatment/control ratio (100 × A/B) (Cercospora zeae-maydis [4]; Waxy corn/Shiro-mochi): 86
- protection of field corns compared with popcorn or waxy corns (Cercospora zeae-maydis [4]; Tables 1 and 2): protected much more effectively
- Plant length in treatment plot (A) (Cercospora zeae-maydis [5]; Field corn/DKC5632): 63 cm
- Treatment/control ratio (100 × A/B) (Cercospora zeae-maydis [5]; Field corn/DKC5632): 103
- Plant length in treatment plot (A) (Cercospora zeae-maydis [5]; Field corn/Koshu): 65 cm
- Treatment/control ratio (100 × A/B) (Cercospora zeae-maydis [5]; Field corn/Koshu): 108
- Plant length in treatment plot (A) (Cercospora zeae-maydis [5]; Field corn/MAS40F): 64 cm
- Treatment/control ratio (100 × A/B) (Cercospora zeae-maydis [5]; Field corn/MAS40F): 102
- Plant length in treatment plot (A) (Cercospora zeae-maydis [5]; Field corn/Pioneer 2088): 62 cm
- Treatment/control ratio (100 × A/B) (Cercospora zeae-maydis [5]; Field corn/Pioneer 2088): 103
- Plant length in treatment plot (A) (Cercospora zeae-maydis [5]; Popcorn/Maru-pop): 45 cm
- Treatment/control ratio (100 × A/B) (Cercospora zeae-maydis [5]; Popcorn/Maru-pop): 80
- Plant length in treatment plot (A) (Cercospora zeae-maydis [5]; Popcorn/Yuki-pop): 53 cm
- Treatment/control ratio (100 × A/B) (Cercospora zeae-maydis [5]; Popcorn/Yuki-pop): 84
- Plant length in treatment plot (A) (Cercospora zeae-maydis [5]; Sweet corn/Rancher 82): 31 cm
- Treatment/control ratio (100 × A/B) (Cercospora zeae-maydis [5]; Sweet corn/Rancher 82): 91
- Plant length in treatment plot (A) (Cercospora zeae-maydis [5]; Waxy corn/Ki-mochi): 29 cm
- Treatment/control ratio (100 × A/B) (Cercospora zeae-maydis [5]; Waxy corn/Ki-mochi): 67
- Plant length in treatment plot (A) (Cercospora zeae-maydis [5]; Waxy corn/Shiro-mochi): 43 cm
- Treatment/control ratio (100 × A/B) (Cercospora zeae-maydis [5]; Waxy corn/Shiro-mochi): 73
- protection from the damage by the pathogen (Cercospora zeae-maydis [5]; each field corn (four varieties), Table 3): successfully protected
- protection from the damage by the pathogen (Cercospora zeae-maydis [5]; popcorns, sweet corn and waxy corns, Table 4): not successfully protected
